The record followed here is patent US20200071667A1, “COMPOSITION COMPRISING GLYCYRRHIZIN FOR INDUCING DIFFERENTIATION INTO MYELOID-DERIVED SUPPRESSOR CELL FROM MYELOID CELL” (Konkuk University Glocal Industry-Academic Collabo, priority 2018, published 2020).

For assay [1], the system named is myeloid cells obtained from blood, the heart, and the lungs. Briefly: Flow cytometric analysis of MDSC ratio in myeloid cells of mice with LPS-induced sepsis (in vivo). Set-up: species or system C57BL/6 mice. As for the experimental part: (§1) Animal experiments were performed according to the National Institutes of Health (NIH) guidelines for the care and use of experimental animals. This study was conducted with the approval of the Konkuk University Animal Care and Use Committee (KU16062). 8-week-old male C57BL/6 mice without specific pathogens were used, and as needed, experimental groups were divided into three groups: a control, an LPS group, and an LPS+GR group.
Specifically, 0.1 ml of phosphate buffered saline (PBS; Gibco, Grand Island, N.Y., USA) was injected intraperitoneally (i.p.) into mice of the control, and 12 hours after the injection, 0.1 ml of PBS was intraperitoneally injected again into each mouse. 1 μg of LPS (Escherichia coli serotype 0111:B4, Sigma-Aldrich, St. Louis, Mo., USA) dissolved in 0.1 ml of PBS was injected intraperitoneally (i.p.) into mice of the LPS group to induce sepsis, and 12 hours after sepsis induction, 0.1 ml of PBS was intraperitoneally injected into each mouse. […]
The myeloid cells obtained from blood, the heart, or the lungs were washed with fluorescence-activated cell sorting (FACS) buffer (PBS containing 1% bovine serum albumin and 0.01% NaN3). […]

The test system of assay [2] is heart tissues and lung tissues. Kind of assay: Histopathologic analysis and injury score of heart and lung tissues in LPS-induced sepsis. The class given is in vivo, C57BL/6 mice. The settings on record: 5-point scale 0-4; LPS 1 μg i.p.; GR 100 mg/kg i.p. twice. As for the experimental part:
as §1
Specifically, 0.1 ml of phosphate buffered saline (PBS; Gibco, Grand Island, N.Y., USA) was injected intraperitoneally (i.p.) into mice of the control, and 12 hours after the injection, 0.1 ml of PBS was intraperitoneally injected again into each mouse. […]
Specifically, the heart tissues and lung tissues of mice of each experimental group prepared in Example 1 were fixed in a 4% paraformaldehyde solution (Biosesang, Seongnam, Korea) at 25° C. overnight and inserted into paraffin blocks. […] Heart (including left and right ventricles) or lung injury was scored based on Table 2 below. Each score was determined by a 5-point scale such as 0: minimal injury, 1: minor injury, 2: moderate injury, 3: severe injury, and 4: maximum injury.

lipopolysaccharide [LPS]: in assay [1] (myeloid cells from blood, heart or lungs, LPS 1 μg i.p., GR 100 mg/kg i.p. twice), the “ratio of MDSCs to myeloid cells (MDSCs/myeloid cells)” value was “significantly reduced compared to the control”. Further, the “blood ratio of MDSCs to CD11+GR1 myeloid cells” value in assay [1] (preliminary study using 6 mice with LPS-induced sepsis, blood) was 18.4±3.13%. Also, in assay [2], the “injury score, heart tissues” value came out at 3.3±0.8 and the “injury score, lung tissues” value was found to be 3.5±0.5.
